Assay results taken from paper PMC6449863, “Rational Design of Antiangiogenic Helical Oligopeptides Targeting the Vascular Endothelial Growth Factor Receptors” (Frontiers in Chemistry, 2019).
Square brackets hold non-standard residues; d marks the D form. Peptide text beside a SMILES is read from it. Aib = CC(C)(N)C(=O)O

Tests used:
[1] = target: T1, extracellular domain of VEGFR-1 (Homo sapiens, UniProt P17948); test: Chemiluminescent assay: inhibition of biotinylated VEGF165 binding to isolated VEGFR-1; conditions: peptide at 500 μM; chemiluminescence read-out
T1 construct: the extracellular domain of VEGFR-1; purchased R&D Systems
From the text: A chemiluminescent assay to determine the inhibition of complex formation between VEGF-A (isoform VEGF165) and the extracellular domain of VEGFR-1 (Goncalves et al., [2007]; García-Aranda et al., [2013]) had been previously employed in our group (Zanella et al., [2015]). VEGF-C (from which analogue 1 was derived) is not selective for VEGFR-1 (Su et al., [2007]), but unfortunately the same assay protocol turned out to be ineffective with VEGFR-2, at least in our hands. The assay based on VEGFR-1 was therefore applied here as a very stringent test of the affinity of our peptides for VEGFRs, and to assess the different peptides comparatively. All peptides were able to inhibit complex formation (Table 3), although in the high micromolar range. […] Further studies were focused on analogues 5 and 6, considering also the higher stability of their secondary structure, which affects resistance to proteolytic degradation.
The chemiluminescent screening assay for the detection of VEGFR-1 ligands was accomplished according to the procedure described in the Supporting Information. […]
horseradish peroxidase diluted at 1:1000 in PBS containing 0.1% (v/v) Tween 20 and 0.3% (w/v) BSA were added per well. Af ter 1 h of incubation at r.t., the plate was washed f ive times with 150 μL of buffer A and 100 μL of SuperSignal W est Pico Chemiluminescent Substrate (Pierce, Rockford, IL, USA) were added. The remaining bt-VEGF165 was detected by chemiluminescence, which was quantif ied with a Synergy™ HT Multi -Detection Microplate Reader (BioTek Instruments, Inc.). The percentages of btVEGF165 displacement were calculated by the following formula: percentage of displacement = 100×[1−( S−NS) / (MS−NS)], where S is the signal measured, NS is the nonspecific binding signal and MS is the maximum binding signal observed with btVEGF165 without tested compounds. […]
loading: 0.5 mmol/g) were used.
Each coupling step consisted in:
1) activation of the Fmoc-protected amino acid;
2) addition of the activated amino acid to the resin at the synthesizer to start the coupling; 3) steps of capping, deprotection and washing.
To perform the automated SPPS, two solutions and two solvents were prepared: 25% Ac2O in DMF (v/v), 25% piperidine in DMF (v/v), methanol and DMF. W hile MeOH was used only as washing solvent, DMF was necessary either for washings and as solvent for the reactions of coupling, capping and deprotection. […]

chymotrypsin = test: Resistance to proteolytic degradation, chymotrypsin; type: in vitro ADME; conditions: Tris·HCl 50 mM pH 7.8, 37°C, RP-HPLC C18 read-out
Procedure: (§1) The proteolytic stability of peptides 1, 5, and 6 was assessed against three enzymes: pronase, trypsin and chymotrypsin (Sigma-Aldrich). Each peptide was dissolved in the appropriate buffer [i.e., (2-amino-2-hydroxymethyl-propane-1,3-diol (Tris)·HCl 20 mM, containing 20 mM CaCl2 pH 7.6 for pronase; Tris·HCl 50 mM, pH 7.8 for trypsin and chymotrypsin). Then, it was incubated with and without the enzyme solution (1.25 μg of enzyme in […] buffer) at 37°C for 12 h. The mixture was analyzed by RP-HPLC (column: Phenomenex Jupiter 5 μ C18 300 Å) every ten minutes for the first hour, then every half hour. Gradients: 5–25%B in 10 min for peptide 1; 15–35%B in 10 min for peptide 5; 15–25%B in 10 min for peptide 6. Eluants: A, H2O:CH3CN 9/1 + 0.05% trifluoroacetic acid (TFA); B: CH3CN:H2O 9/1 + 0.05% TFA.

trypsin = test: Resistance to proteolytic degradation, trypsin; type: in vitro ADME; conditions: Tris·HCl 50 mM pH 7.8, 37°C, RP-HPLC C18 read-out
Procedure: as §1

pronase = test: Resistance to proteolytic degradation, pronase; type: in vitro ADME; conditions: Tris·HCl 20 mM with 20 mM CaCl2 pH 7.6, 37°C, RP-HPLC C18 read-out
Procedure: as §1

[2] = target: T1, extracellular domain of VEGFR-1; conditions: chemiluminescent VEGFR-1 ligand screening assay; ref Zanella et al., 2015; read-out: IC50 of unlabeled VEGF165 (reference compound); cited from earlier work
From the text: The chemiluminescent screening assay for the detection of VEGFR-1 ligands was accomplished according to the procedure described in the Supporting Information.

T1 sequence (P17948 27-758 limits assumed): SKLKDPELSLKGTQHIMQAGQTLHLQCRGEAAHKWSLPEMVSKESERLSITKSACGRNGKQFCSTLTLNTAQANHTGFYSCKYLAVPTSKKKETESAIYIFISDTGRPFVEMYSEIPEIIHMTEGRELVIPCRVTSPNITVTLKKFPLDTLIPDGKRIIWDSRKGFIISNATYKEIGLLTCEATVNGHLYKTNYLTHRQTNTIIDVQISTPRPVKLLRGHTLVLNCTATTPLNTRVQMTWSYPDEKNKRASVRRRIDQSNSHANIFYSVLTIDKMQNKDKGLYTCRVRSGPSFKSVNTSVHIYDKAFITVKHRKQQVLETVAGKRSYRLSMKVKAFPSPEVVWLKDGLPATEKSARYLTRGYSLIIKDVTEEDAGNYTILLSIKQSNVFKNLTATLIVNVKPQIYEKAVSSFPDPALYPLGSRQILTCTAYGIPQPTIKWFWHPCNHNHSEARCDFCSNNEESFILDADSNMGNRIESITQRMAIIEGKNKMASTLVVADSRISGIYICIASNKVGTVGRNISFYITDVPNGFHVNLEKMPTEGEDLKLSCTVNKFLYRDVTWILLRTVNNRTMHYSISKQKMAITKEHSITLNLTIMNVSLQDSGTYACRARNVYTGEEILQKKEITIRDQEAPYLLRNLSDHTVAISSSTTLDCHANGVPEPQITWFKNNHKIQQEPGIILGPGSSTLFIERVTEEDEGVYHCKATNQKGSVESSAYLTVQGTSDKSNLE

Compound	inhibition at 500 µM [1] [%]	further results
CC[C@H](C)[C@H](NC(=O)C(C)(C)NC(C)=O)C(=O)N[C@@H](CC(=O)O)C(=O)N[C@@H](CC(N)=O)C(=O)NC(C)(C)C(=O)N[C@@H](Cc1c[nH]c2ccccc12)C(=O)N[C@@H](CCCNC(=N)N)C(=O)N[C@@H](CCCCN)C(=O)NC(C)(C)C(=O)N[C@@H](CCC(N)=O)C(N)=O [Peptide 3, Ac-Aib-Ile-Asp-As n -Aib-Trp-Arg -Lys-Aib-Gln-amide] (Ac-[Aib]IDN[Aib]WRK[Aib]Q-NH2)	86 ± 1	–
Ac-IDNEWRKTQ-NH2 [Peptide 1, Ac-Ile-Asp-Asn-Glu-Trp-Arg -Lys-T hr -Gln-amide]	27 ± 1	time within which peptide was degraded by chymotrypsin (chymotrypsin): ≤ 15 min; time within which peptide was degraded by trypsin (trypsin): ≤ 15 min; time within which peptide was degraded by pronase (pronase): ≤ 15 min
VEGF165: VEGF-A isoform VEGF165, unlabeled, employed as reference compound in the VEGFR-1 assay	–	IC50 [2]: 0.146 nM

More lines, main results first:

inhibition at 500 µM [1] [%]	Compound	further results
40 ± 10	CC(=O)NC(C)(C)C(=O)N[C@@H](Cc1c[nH]c2ccccc12)C(=O)N[C@@H](CC(=O)O)C(=O)N[C@@H](CC(N)=O)C(=O)NC(C)(C)C(=O)N[C@@H](Cc1c[nH]c2ccccc12)C(=O)N[C@@H](CCCNC(=N)N)C(=O)N[C@@H](CCCCN)C(=O)NC(C)(C)C(=O)N[C@@H](Cc1c[nH]c2ccccc12)C(N)=O [Peptide 4, Ac-Aib-Trp- Asp-Asn-Aib-Trp- Arg -Lys-Aib-Trp-amide] (Ac-[Aib]WDN[Aib]WRK[Aib]W-NH2)	–
29 ± 7	Ac-WDNEWRKTW-NH2 [Peptide 2]	–
